PubChem BioAssay (NCI)
Several values for one entry are separate records, joined by “and”; a condition that tells them apart may be missing. Equal entries are not always repeated.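 Test compounds were applied to cells in 96-well plates for 48 hours at 5 doses. GI50 marks 50% less growth. The concentration for full growth arrest is given as TGI.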

The compounds below were run on MDA-MB-468 breast (assay: NCI anticancer screen, dose series, 48 h).
For Brc1cccc(-c2cc(-c3ccc4c(c3)OCCO4)[nH]n2)c1, the GI50 was 5600 nM and the TGI was 33500 nM.
In the case of Clc1ccccc1C(c1ccccc1)(c1ccccc1)n1ccnc1, the GI50 is reported as 1770 nM and the TGI is reported as 6210 nM.
Cc1cc([C@@H](C)Nc2ccccc2C(=O)O)c2nc(N3CCOCC3)cc(=O)n2c1 gave a GI50 of 2210 nM and a TGI greater than 10000 nM.
Work on CCn1c(-c2nonc2N)nc2c(C#CCN)ncc(OCCCN)c21 yielded a GI50 greater than 25000 nM and a TGI greater than 25000 nM.
Work on O=C(Nc1nc2ccccc2s1)OCC(F)(F)F yielded a GI50 greater than 100000 nM and a TGI greater than 100000 nM.
Work on Cc1cc2nc3c4cc(Cl)ccc4n(CCN(C)C)c3nc2cc1C yielded a GI50 of 1410 nM and a TGI of 3580 nM.
Cc1ccn2c3c(c(C(=O)O)c2c1)C(=O)c1ccccc1C3=O showed a GI50 of 17300 nM and a TGI greater than 100000 nM.
COc1ccc(-c2nn(-c3cccc(Cl)c3)cc2C2CC(c3ccccc3)=NN2C(C)=O)cc1 (configuration not stated) showed a GI50 of 16300 nM and a TGI greater than 100000 nM.
CNC(=O)c1ccccc1CC1(O)c2ccccc2Oc2ccccc21 gave a GI50 of 3550 nM and a TGI of 20500 nM.
CCCCCCCCCCCCCC(=S)NCCCC[C@H](NC(=O)OCc1ccccc1)C(=O)Nc1ccccc1 gave a GI50 of 2690 nM and a TGI greater than 100000 nM.
In the case of C=CC(=O)N[C@H]1C=C(C)c2c(-c3cnc4ccccc4c3)c3c(N)ncnc3n2C1, the GI50 is reported as 26.5 nM and the TGI is reported as 485 nM.
C=C1C(=O)O[C@H]2[C@H]1CC/C(CNC(=O)c1c[nH]c3ccc(F)cc13)=C\CC[C@@]1(C)O[C@@H]21 showed a GI50 of 658 nM and a TGI of 2060 nM.
COc1cc2c3c(cccc3c1)C(=O)N(CCN1CCCC1)C2=O gave a GI50 of 1320 nM and a TGI of 3700 nM.
Work on CCn1c(SCC(=O)Nc2cccc(C(=O)/C=C/c3cc(OC)c(OC)c(OC)c3)c2)nc2ccccc2c1=O yielded a GI50 of 4220 nM and a TGI of 40200 nM.
With COC1(C(=O)N2Cc3nc(Cl)nc(N[C@H](C)c4cc(N)cc(C(F)(F)F)c4)c3C2)CCOCC1 the GI50 was 4440 nM and the TGI was 40100 nM.
With CN(C)CC(=O)N1CCC(c2ccc(NC(=O)c3ncc(C#N)[nH]3)c(C3=CCCCC3)c2)CC1 the GI50 was 4860 nM and the TGI was 18500 nM.
Compound COc1ccc(C(=S)N2CCN(c3cccc(Cl)c3)CC2)cc1 has a GI50 of 32300 nM and a TGI greater than 100000 nM.
Compound O=C(NNc1nc2c(F)cccc2n2cccc12)c1cnccn1 has a GI50 of 535 nM and a TGI of 2170 nM.
NC(N)=N/N=C(/c1ccccc1)c1ccc(F)cc1 was tested, and the GI50 was 220 nM and the TGI was 2460 nM.
CC1(C)N=C(N)N=C(N)N1c1ccc(CCCCc2ccc(S(=O)(=O)F)cc2)cc1 showed a GI50 of 539 nM and a TGI of 9330 nM.
In the case of COc1cc(/C=C\[N+](=O)[O-])ccc1O, the GI50 is reported as 1690 nM and the TGI is reported as 3500 nM.
COc1cccc(/C=C/C(=O)c2cc3c(N)c(C(=O)Nc4ccccc4C)sc3nc2C)c1 showed a GI50 of 887 nM and a TGI of 2040 nM.
In the case of CN1CCN(Cc2ccc(C(=O)Nc3cncc(C#Cc4cnc(N)c5ccccc45)c3)cc2C(F)(F)F)CC1, the GI50 is reported as 1770 nM and the TGI is reported as 3650 nM.
With O=c1cc(-c2cccc(F)c2)[nH]c2cc3c(cc12)OCO3 the GI50 was 10800 nM and the TGI was 45200 nM.
COC(=O)C(=O)CC(=O)CCn1ncc(Cl)c(Cl)c1=O gave a GI50 of 7010 nM and a TGI of 22500 nM.
Oc1ccccc1/C=N/Nc1ccc2ccccc2n1 was tested, and the GI50 was 2600 nM and the TGI was 14800 nM.
C[C@@H]1CC[C@@H]2[C@@H]1[C@H](OC(=O)/C=C/c1ccccc1)[C@]1(c3ccccc3)C[C@@H](OC(=O)CO)[C@@]2(C)O1 showed a GI50 of 13600 nM and a TGI of 29000 nM.
With CN1CCN(CC#Cc2cccc(C(=O)c3cnn(-c4ccc(F)cc4)c3N)c2)CC1 the GI50 was greater than 25000 nM and the TGI was greater than 25000 nM.
For Cc1nn(-c2ccc(F)cc2)c2ncnc(Nc3ccc(NC(=O)Nc4ccc(Cl)c(C(F)(F)F)c4)cc3)c12, the GI50 was 1800 nM and the TGI was 4540 nM.
CC(C)(C)c1cc(O)c(O)c(C(C)(C)C)c1 gave a GI50 of 2140 nM and a TGI of 4770 nM.
With O=C(CSc1nc2ccc([N+](=O)[O-])cc2[nH]1)Nc1ccc(F)c(Cl)c1 the GI50 was 1170 nM and the TGI was 5070 nM.
CCC(C)C1NC(=O)c2nc(oc2-c2ccccc2)-c2csc(n2)-c2csc(n2)-c2nc(oc2C)-c2coc(n2)CNC(=O)C(C(C)CC)NC1=O (configuration not stated) gave a GI50 of 30 nM and a TGI of 101 nM.
Cc1[nH]c(/C=C2\C(=O)Nc3ccc(S(=O)(=O)Cc4c(Cl)cccc4Cl)cc32)c(C)c1C(=O)N1CCC[C@@H]1CN1CCCC1 gave a GI50 of 1520 nM and a TGI of 2940 nM.
For COc1ccc(C(=O)Nc2ncc(Cc3ccc(Cl)cc3)s2)cc1, the GI50 was 37.8 nM and the TGI was 17500 nM.
In the case of Nc1n[nH]c2ccc([C@@H]3Nc4ccc5[nH]ncc5c4[C@H]4[C@H]5CCC(C5)[C@H]43)cc12, the GI50 is reported as 249 nM and the TGI is reported as 1420 nM.
With CC(=O)Nc1cccc(-n2c(=O)n(C3CC3)c(=O)c3c(Nc4ccc(I)cc4F)n(C)c(=O)c(C)c32)c1 the GI50 was 2820 nM and > 10000 nM and the TGI was 23600 nM and > 10000 nM.
For CCN1CCN(c2nc(NCCCNc3ccnc4cc(Cl)ccc34)c3ccccc3n2)CC1, the GI50 was 1620 nM and the TGI was 3610 nM.
Work on COc1ccccc1NC1=C(Cl)C(=O)c2nc(C)ccc2C1=O yielded a GI50 of 1520 nM and a TGI of 3060 nM.
COc1c(C2CC(=O)Nc3c2cnn3Cc2ccco2)cc2c(c1OC)OCO2 (configuration not stated) gave a GI50 of 318 nM and a TGI greater than 100000 nM.
C#Cc1nc(C(=O)NCCC(=O)Nc2ccc(NC(=O)c3ccc(/C=C/C(=O)c4nccn4C)cc3)cc2)cs1 was tested, and the GI50 was 891 nM and the TGI was 2170 nM.
N#CC(=C1SCS1)[N+](=O)[O-] gave a GI50 of 249 nM and a TGI of 846 nM.
COc1cc2ncn(-c3cc(OCc4ccccc4Cl)c(C(N)=O)s3)c2cc1OC gave a GI50 of 49.9 nM and a TGI of 429 nM.
Work on Fc1cccc(COc2ccc(Nc3ncncc3C#Cc3ccccc3)cc2Cl)c1 yielded a GI50 of 8770 nM and a TGI greater than 25000 nM.
For Cc1ccc2c(C(C[N+](=O)[O-])c3cccs3)c(-c3ccccc3)[nH]c2c1 (configuration not stated), the GI50 was 820 nM and the TGI was 3020 nM.
Compound O=C(Nc1cccc(-n2ccc3c(NC(=O)c4ccccc4)nccc32)c1)c1cccc(C(F)(F)F)c1 has a GI50 of 29.5 nM and a TGI of 1540 nM.
With CN=C(N)N/N=C(\c1ccccc1)c1ccc(Br)cc1 the GI50 was 275 nM and the TGI was 1080 nM.
